Test results: US20100056508A1, “AMINE DERIVATIVES AND THEIR USE IN BETA-2-ADRENORECEPTOR MEDIATED DISEASES” (ASTRAZENECA AB, priority 2006, published 2010)
Where a name gives a salt, the structure may show the parent alone.

Assays:
[1] = target: T1, Adrenergic β2 (Homo sapiens, UniProt P07550); test: Adrenergic β2 mediated cAMP production in H292 cells (AlphaScreen cAMP detection); format: cell-based; design: key to β2 Int Act: fraction of formoterol maximum activity (formoterol = 1); details: for β2 Int Act: Intrinsic Activity as a fraction relative to the maximum activity determined for formoterol; for EC50: cAMP production, 60 minutes at room temperature, 300 μM rolipram, read-out: β2 pEC50 (converted)
T1 construct: Adherent H292 cells were removed from tissue culture flasks; endogenous in cells; host or cells: H292 cells
Outline: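 H292 cells pre-treated 10 min with rolipram (300 μM final), then given agonist for 60 min at room temperature in HBSS/10 mM HEPES pH 7.4, 1.6% DMSO final. Lysate cAMP measured by AlphaScreen against a cAMP standard curve. Four-parameter fit gives pEC50; intrinsic activity relative to formoterol maximum.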

[2] = target: T2, recombinant human adrenergic beta 1 receptors (Homo sapiens, UniProt P08588); test: Adrenergic β1 selectivity assay, [125I]-Iodocyanopindolol binding to membranes; details: inhibition of [125I]-Iodocyanopindolol binding, read-out: β1 bind pIC50 (converted)
T2 construct: purchased Euroscreen
Outline: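 Displacement of [^125I]-Iodocyanopindolol (0.036 nM final) from human β1 receptor membranes, 2 hours at room temperature, pH 7.4 HEPES/EDTA/NaCl buffer. After filtration, scintillation counting; NSB set with 10 μM propranolol and subtracted. Four-parameter logistic fitting gave pIC50.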

T2 sequence (P08588 whole entry): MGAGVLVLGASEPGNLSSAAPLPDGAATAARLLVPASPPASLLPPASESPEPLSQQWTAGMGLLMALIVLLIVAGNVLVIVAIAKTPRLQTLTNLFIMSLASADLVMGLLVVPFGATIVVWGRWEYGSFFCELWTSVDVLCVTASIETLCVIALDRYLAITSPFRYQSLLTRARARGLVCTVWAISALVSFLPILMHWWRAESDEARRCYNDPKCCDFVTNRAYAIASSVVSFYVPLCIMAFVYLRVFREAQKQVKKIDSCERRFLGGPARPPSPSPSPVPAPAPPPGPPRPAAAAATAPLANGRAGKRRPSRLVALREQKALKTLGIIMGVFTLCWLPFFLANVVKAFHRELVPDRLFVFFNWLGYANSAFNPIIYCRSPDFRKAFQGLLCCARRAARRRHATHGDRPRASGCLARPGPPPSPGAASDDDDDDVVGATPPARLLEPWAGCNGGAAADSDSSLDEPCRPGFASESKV
T1 sequence (P07550 whole entry): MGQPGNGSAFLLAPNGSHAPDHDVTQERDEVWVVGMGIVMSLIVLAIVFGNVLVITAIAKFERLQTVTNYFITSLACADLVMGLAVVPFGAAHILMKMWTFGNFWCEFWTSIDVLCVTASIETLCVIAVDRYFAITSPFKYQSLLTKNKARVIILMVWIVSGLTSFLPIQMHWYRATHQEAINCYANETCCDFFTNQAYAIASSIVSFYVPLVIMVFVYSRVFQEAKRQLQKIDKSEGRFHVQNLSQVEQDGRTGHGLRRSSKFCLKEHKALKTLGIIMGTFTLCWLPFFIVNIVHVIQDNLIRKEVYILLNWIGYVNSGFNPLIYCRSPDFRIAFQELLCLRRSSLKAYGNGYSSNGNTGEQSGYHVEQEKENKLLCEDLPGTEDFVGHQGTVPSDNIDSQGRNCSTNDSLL

SMILES | β2 Int Act [1] | EC50 [1] [nM] | IC50 [2] [nM]
CCCC[C@@H](C)N(CCNCCc1ccc(O)c2c1OCC(=O)N2)C(=O)CCNCCc1cc(F)cc(F)c1 [Example 51, (R)-3-(3,5-Difluorophenethylamino)-N-(hexan-2-yl)-N-(2-(2-(5-hydroxy-3-oxo-3,4-dihydro-2H-benzo[b][1,4]oxazin-8-yl)ethylamino)ethyl)propanamide bis(trifluoroacetate)] | 0.94 | 1.58 | 2000
CCCC[C@@H](C)N(CCNCCc1ccc(O)c2c1OCC(=O)N2)C(=O)CCNCCc1ccc(F)c(F)c1 [Example 52, (R)-3-(3,4-Difluorophenethylamino)-N-(hexan-2-yl)-N-(2-(2-(5-hydroxy-3-oxo-3,4-dihydro-2H-benzo[b][1,4]oxazin-8-yl)ethylamino)ethyl)propanamide bis(trifluoroacetate)] | 0.95 | 10 | 1580
CCCC[C@@H](C)N(CCNCCc1ccc(O)c2c1OCC(=O)N2)C(=O)CCNCCc1cccc(F)c1F [Example 53, (R)-3-(2,3-Difluorophenethylamino)-N-(hexan-2-yl)-N-(2-(2-(5-hydroxy-3-oxo-3,4-dihydro-2H-benzo[b][1,4]oxazin-8-yl)ethylamino)ethyl)propanamide bis(trifluoroacetate)] | 0.99 | 6.31 | 2510
CCCC[C@@H](C)N(CCNCCc1ccc(O)c2c1OCC(=O)N2)C(=O)CCNCCc1cc(F)ccc1F [Example 54, (R)-3-(2,5-Difluorophenethylamino)-N-(hexan-2-yl)-N-(2-(2-(5-hydroxy-3-oxo-3,4-dihydro-2H-benzo[b][1,4]oxazin-8-yl)ethylamino)ethyl)propanamide bis(trifluoroacetate)] | 0.96 | 5.01 | 2000
CCCC[C@@H](C)N(CCNCCc1ccc(O)c2c1OCC(=O)N2)C(=O)CCNCCc1ccc(Cl)c(Cl)c1 [Example 55, (R)-3-(3,4-Dichlorophenethylamino)-N-(hexan-2-yl)-N-(2-(2-(5-hydroxy-3-oxo-3,4-dihydro-2H-benzo[b][1,4]oxazin-8-yl)ethylamino)ethyl)propanamide bis(trifluoroacetate)] | 0.92 | 31.6 | 1000
CCCC[C@@H](C)N(CCNCCc1ccc(O)c2c1OCC(=O)N2)C(=O)CCNCCc1cc(C)ccc1F [Example 56, (R)-3-(2-Fluoro-5-methylphenethylamino)-N-(hexan-2-yl)-N-(2-(2-(5-hydroxy-3-oxo-3,4-dihydro-2H-benzo[b][1,4]oxazin-8-yl)ethylamino)ethyl)propanamide bis(trifluoroacetate)] | 0.91 | 7.94 | 2000
CCCC[C@@H](C)N(CCNCCc1ccc(O)c2c1OCC(=O)N2)C(=O)CCNCCc1cc(F)ccc1C [Example 57, (R)-3-(5-Fluoro-2-methylphenethylamino)-N-(hexan-2-yl)-N-(2-(2-(5-hydroxy-3-oxo-3,4-dihydro-2H-benzo[b][1,4]oxazin-8-yl)ethylamino)ethyl)propanamide bis(trifluoroacetate)] | 0.91 | 7.94 | 1580
CC[C@@H](C)N(CCNCCc1ccc(O)c2c1OCC(=O)N2)C(=O)CCNCCc1ccc(Cl)c(Cl)c1 [Example 58, (R)—N-sec-Butyl-3-(3,4-dichlorophenethylamino)-N-(2-(2-(5-hydroxy-3-oxo-3,4-dihydro-2H-benzo[b][1,4]oxazin-8-yl)ethylamino)ethyl)propanamide dihydrochloride] | 0.91 | 7.94 | 2000
CC(C)[C@@H](C)N(CCNCCc1ccc(O)c2c1OCC(=O)N2)C(=O)CCNCCc1ccc(Cl)c(Cl)c1 [Example 59, (R)-3-(3,4-Dichlorophenethylamino)-N-(2-(2-(5-hydroxy-3-oxo-3,4-dihydro-2H-benzo[b][1,4]oxazin-8-yl)ethylamino)ethyl)-N-(3-methylbutan-2-yl)propanamide dihydrochloride] | 0.87 | 3.98 | 2000
C[C@H](C1CCCCC1)N(CCNCCc1ccc(O)c2c1OCC(=O)N2)C(=O)CCNCCc1ccccc1 [Example 61, (R)—N-(1-Cyclohexylethyl)-N-(2-(2-(5-hydroxy-3-oxo-3,4-dihydro-2H-benzo[b][1,4]oxazin-8-yl)ethylamino)ethyl)-3-(phenethylamino)propanamide bis(trifluoroacetate)] | 0.84 | 3.16 | 501
Cc1cc(CCNCCC(=O)N(CCNCCc2ccc(O)c3c2OCC(=O)N3)C2CCCCCC2)ccc1F [Example 62, N-Cycloheptyl-3-(4-fluoro-3-methylphenethylamino)-N-(2-(2-(5-hydroxy-3-oxo-3,4-dihydro-2H-benzo[b][1,4]oxazin-8-yl)ethylamino)ethyl)propanamide bis(trifluoroacetate)] | 0.86 | 3.98 | 251
O=C1COc2c(CCNCCN(C(=O)CCNCCc3ccc(Cl)cc3)C3CCCCCC3)ccc(O)c2N1 [Example 63, 3-(4-Chlorophenethylamino)-N-cycloheptyl-N-(2-(2-(5-hydroxy-3-oxo-3,4-dihydro-2H-benzo[b][1,4]oxazin-8-yl)ethylamino)ethyl)propanamide bis(trifluoroacetate)] | 0.79 | 2 | 251
O=C1COc2c(CCNCCN(C(=O)CCNCCc3cc(F)ccc3F)C3CCCCCC3)ccc(O)c2N1 [Example 64, N-Cycloheptyl-3-(2,5-difluorophenethylamino)-N-(2-(2-(5-hydroxy-3-oxo-3,4-dihydro-2H-benzo[b][1,4]oxazin-8-yl)ethylamino)ethyl)propanamide bis(trifluoroacetate)] | 0.88 | 0.631 | 1260
O=C1COc2c(CCNCCN(C(=O)CCNCCc3cc(F)cc(F)c3)C3CCCCCC3)ccc(O)c2N1 [Example 65, N-Cycloheptyl-3-(3,5-difluorophenethylamino)-N-(2-(2-(5-hydroxy-3-oxo-3,4-dihydro-2H-benzo[b][1,4]oxazin-8-yl)ethylamino)ethyl)propanamide bis(trifluoroacetate)] | 0.93 | 1.58 | 2510
O=C1COc2c(CCNCCN(C(=O)CCNCCc3cc(F)cc(Cl)c3)C3CCCCCC3)ccc(O)c2N1 [Example 66, 3-(3-Chloro-5-fluorophenethylamino)-N-cycloheptyl-N-(2-(2-(5-hydroxy-3-oxo-3,4-dihydro-2H-benzo[b][1,4]oxazin-8-yl)ethylamino)ethyl)propanamide bis(trifluoroacetate)] | 0.99 | 2.51 | 1580
O=C1COc2c(CCNCCN(C(=O)CCNCCc3ccc(F)c(F)c3)C3CCCCCC3)ccc(O)c2N1 [Example 67, N-Cycloheptyl-3-(3,4-difluorophenethylamino)-N-(2-(2-(5-hydroxy-3-oxo-3,4-dihydro-2H-benzo[b][1,4]oxazin-8-yl)ethylamino)ethyl)propanamide bis(trifluoroacetate)] | 0.87 | 3.16 | 1000
O=C1COc2c(CCNCCN(C(=O)CCNCCc3cccc(Cl)c3)C3CCCCCC3)ccc(O)c2N1 [Example 68, 3-(3-Chlorophenethylamino)-N-cycloheptyl-N-(2-(2-(5-hydroxy-3-oxo-3,4-dihydro-2H-benzo[b][1,4]oxazin-8-yl)ethylamino)ethyl)propanamide bis(trifluoroacetate)] | 0.93 | 3.98 | 398
O=C1COc2c(CCNCCN(C(=O)CCNCCc3cccc(F)c3)C3CCCCCC3)ccc(O)c2N1 [Example 69, N-Cycloheptyl-3-(3-fluorophenethylamino)-N-(2-(2-(5-hydroxy-3-oxo-3,4-dihydro-2H-benzo[b][1,4]oxazin-8-yl)ethylamino)ethyl)propanamide bis(trifluoroacetate)] | 0.88 | 1.58 | 794
O=C1COc2c(CCNCCN(C(=O)CCOCCc3ccccc3)C3CCCCC3)ccc(O)c2N1 [Example 70, N-Cyclohexyl-N-(2-(2-(5-hydroxy-3-oxo-3,4-dihydro-2H-benzo[b][1,4]oxazin-8-yl)ethylamino)ethyl)-3-phenethoxypropanamide trifluoroacetate] | 0.97 | 3.98 | 3980
O=C1COc2c(CCNCCN(C(=O)CCOCCc3cccc(F)c3)C3CCCCC3)ccc(O)c2N1 [Example 74, N-Cyclohexyl-3-(3-fluorophenethoxy)-N-(2-(2-(5-hydroxy-3-oxo-3,4-dihydro-2H-benzo[b][1,4]oxazin-8-yl)ethylamino)ethyl)propanamide trifluoroacetate] | 0.97 | 2 | 2510
O=C1COc2c(CCNCCN(C(=O)CCOCCc3ccc(F)cc3)C3CCCCC3)ccc(O)c2N1 [Example 75, N-Cyclohexyl-3-(4-fluorophenethoxy)-N-(2-(2-(5-hydroxy-3-oxo-3,4-dihydro-2H-benzo[b][1,4]oxazin-8-yl)ethylamino)ethyl)propanamide trifluoroacetate] | 0.96 | 2.51 | 1260
